Reference: patent US20040138137A1, “Alloferons - immunomodulatory peptides” (Entopharm Co., Ltd., priority 1999, published 2004)
Like-named read-outs stand apart in the source and are kept apart here. Marks after values point to notes of the source that are not given here. Ends that are not written are not given here.

Experiments:
[1] = system: human peripheral blood lymphocytes; A431 tumor cells; assay: Cytotoxic activity of human PBL against A431 tumor cells, alloferon 1 analogs; settings: 5 ng/ml; A431 targets; control −6.0 ± 8.1
Protocol: The mononuclear fraction isolated from the blood of healthy donors and target cell of the A431 cell line were co-incubated in the presence of one of the preparations: alloferon 1, alloferon 3, alloferon 4 or interferon-alpha 2b (positive control). The preparation's concentration in all cases was 5 ng/ml. Cytotoxicity index excess over the untreated control was used as the efficacy criterion.

Acute toxicity in mice = format: in vivo; settings: 500-6000 mg/kg in mice
Acute toxicity in rats = format: in vivo
[2] = Subacute and chronic toxicity in rats; format: in vivo; settings: 0.2, 2 and 20 mg/kg once a day during 90 days
mouse germ cells = assay: Dominant lethal mutations in the mouse germ cells; format: in vivo; settings: 15 mg/kg
Salmonella tiphimurium = assay: Ames test; format: cell-based; settings: 0.1-1000 microgram/Petri dish; 3 test line
E. coli test-line PQ37 = assay: DNA SOS-reparation; format: cell-based
[3] = Toxicity evaluation, panel of in vitro and in vivo models (overall statement); settings: in vivo and in vitro studies
Protocol: The toxicity of alloferon was tested using a panel of in vitro and in vivo models.

[4] = system: mouse spleen lymphocytes; K562 human leukemia cells
Protocol: (§1) H3-uridine labeled K562 human leukemia cells were used as targets for a cytotoxic lymphocytes' attack. […] Then the proportion of killed and normal target cells and the corresponding cytotoxicity indices were determined in control and experimental groups.

[5] = therapeutic and 10-fold administration
fat cells = settings: therapeutic and 10-fold administration
[6] = therapeutic and 10-fold administration; remark: listed apart in the source
[7] = therapeutic and 10-fold administration; remark: listed apart in the source
[8] = subcutaneous injection 1.5 and 15 mg/kg into pregnant rats
mouse bone marrow cells = settings: single dose 0.5 and 15 mg/kg and fivefold dose 0.5 mg/kg
[9] = system: peripheral blood lymphocytes (PBL) in healthy donors; K562 cell line; assay: PBL cytotoxicity in healthy donors, K562 targets; settings: for Cytotoxicity index, M ± m, %: healthy donor 16, K562, 5 ng/ml, lymphocyte:target 20:1, control −3.5 ± 7.4; for Donors responding by statistically approved increase of cytotoxic activity against K562 or A431: out of 17 healthy donors
Protocol: as §1
(§2) The lymphocytes were diluted up to 2×10^6 cells/ml and immediately used for the cytotoxicity analysis.
(§3) Two kinds of target cells were used in the study simultaneously: the K562 cell line originated from erythromyeloid leukemia cells and the A431 cell line originated from the solid colorectal tumor. The proportion of lymphocytes and target cells (E/T ratio) in the trial was 20:1.

[10] = system: peripheral blood lymphocytes (PBL) in cancer patients; A431; assay: PBL cytotoxicity in cancer patients, A431 targets; settings: for Cytotoxicity index, %: A431, lymphocyte:target 20:1
Protocol: as §1, §2, §3

[11] = system: human peripheral blood lymphocytes; K562 cancer cells; assay: Cytotoxic activity of human peripheral blood lymphocytes against K562 cancer cells
Protocol: as §1, §2

[12] = system: human influenza virus A strain A/Aichi/2/68 (cerotype H3N2); format: in vivo, mice
[13] = system: peripheral blood lymphocytes (PBL) in healthy donors; A431 cell line; settings: 17 healthy donors
Protocol: as §1, §2, §3

[14] = system: peripheral blood lymphocytes (PBL) in cancer patients; K562; settings: 18 cancer patients; for Positive responses proportion, K562 or A531: either target
Protocol: as §1, §2, §3

[15] = patient 11, Uterus cancer, control 93.3 ± 1.0
[16] = patient 14, Non-Hodgkin lymphoma, control −40.0 ± 20.5
[17] = 17 healthy donors, K562 or A431

## VSGHGQHGVH [Alloferon 3]
[1]
  Average cytotoxicity index, M ± m, %: 60.2 ± 2.7%

## HGVSGHGQHGVHG [Alloferon 1]
Acute toxicity in mice
  Acute toxicity, animal growth, feeding, macroscopical structure of organs, injection place: highest dose. No changes in animal growth, feeding,
Acute toxicity in mice; single subcutaneous and intragastric administration
  Acute toxicity, mortality: Mortality was not registered in any dose including
Acute toxicity in rats; 300-5000 mg/kg in rats
  Acute toxicity, animal growth, feeding, macroscopical structure of organs, injection place: highest dose. No changes in animal growth, feeding,
Acute toxicity in rats; rats
  Toxic/therapeutic dose ratio: ratio >35700 times
Acute toxicity in rats; single subcutaneous and intragastric administration, 300-5000 mg/kg in rats
  Acute toxicity, mortality: Mortality was not registered in any dose including
[2]
  Subacute and chronic toxicity, mortality: None animal died during 90 day period.
  Subacute and chronic toxicity, physiological, hematological, biochemical, pathomorphological and histological data: testicles, ovary) data did not show negative changes
Mouse germ cells
  Dominant lethal mutations in the mouse germ cells: Alloferon in the dose 15 mg/kg did not induce
Salmonella tiphimurium
  Ames test, gene mutations: microgram/Petri dish did not induce gene mutations
E. coli test-line PQ37
  DNA SOS-reparation, DNA-damaging activity: Alloferon has no DNA-damaging activity in the E. coli
[3]; listed as Alloferon
  Overall toxicity (words): practically nontoxic
[3]; listed as alloferon
  Overall toxicity (words): No signs of acute or chronic toxicity
[3]; listed as alloferon 1
  Overall toxicity (words): Neither an acute nor a chronic toxicity
[4]
  Effective in vitro concentration, stimulation of mouse spleen lymphocytes' cytotoxic activity: 0.05 to 50 ng/mL
10-fold therapeutic dose, registered in 1 male, 12 guinea pigs
  Anaphylactic shock: dosage. Minimal response (short term unrest, nose
Therapeutic dosage, guinea pigs
  Anaphylactic shock: No signs of anaphylaxy were found at therapeutic
[5]
  Immune complexes reaction: The reaction was not found under alloferon
Fat cells
  Indirect reaction of fat cells degranulation: Fat cells degranulation rate was not changed under
[6]
  Conjunctive probe: The reaction was not found under alloferon
[7]
  Reaction of delayed hypersensitivity: The reaction was not found under alloferon
[8]
  Embriotoxicity and influence on the reproductive function: Alloferon administration did not cause negative
Mouse bone marrow cells
  Chromosome aberrations in the mouse bone marrow cells: fivefold dose 0.5 mg/kg did not induce chromosome
[9]
  Cytotoxicity index, M ± m, %: 18.5 ± 1.7 %
  Donors responding by statistically approved increase of cytotoxic activity against K562 or A431: 10 donors
[10]; cancer patients
  Effective in vitro concentration, stimulation of peripheral blood lymphocytes' cytotoxic activity in cancer patients: 5 ng/mL
[10]; [15]
  Cytotoxicity index, %: 94.3 ± 0.4%
[10]; [16]
  Cytotoxicity index, %: 15.3 ± 4.8 %
[11]
  Concentration from which PBLs' cytotoxicity against K562 was significantly increased: ≥ 0.0005 nanogram/ml
  Effective in vitro concentration, stimulation of human peripheral blood lymphocytes' cytotoxic activity: 0.0005 to 500 ng/mL

## CC(N)C12CC3CC(CC(C3)C1)C2 (stereo not drawn) [Remantadin]
[12]; 1000 microgram per mouse per os, control 65
  Mortality 10 days after virus inoculation, %: 5*** %
[12]; mouse, in vivo, sc
  Protection from lethal pulmonary lesions caused by the influenza virus: effectively protected

## Interferon-alpha 2b
[13]
  Positive responses proportion, A431: 4/17 = 24%
[14]; K562 or A431
  Positive responses coincidence: Donors selectively sensitive to the preparation: 4/18 = 22%
  Positive responses coincidence: Interferon and alloferon sensitive donors: 7/18 = 38%
[14]; listed as Interferon
  Positive responses proportion, K562 or A531: 10/18 = 56%
[14]; listed as interferon
  Positive responses proportion, K562 or A531: 56%
[14]; positive response = statistically significant increase of lymphocyte cytotoxicity index
  Positive responses proportion, K562: 6/18 = 33%
[9]; [17]
  Positive responses coincidence: Donors selectively sensitive to the preparation: 1/17 = 6%
  Positive responses coincidence: Interferon and alloferon sensitive donors: 9/17 = 53%
[9]; 17 healthy donors, either target
  Positive responses proportion, K562 or A531: 10/17 = 59%
[9]; 17 healthy donors, positive response = statistically significant increase of lymphocyte cytotoxicity index
  Positive responses proportion, K562: 7/17 = 41%
[9]
  Cytotoxicity index, M ± m, %: 5.0 ± 4.7%
  Donors responding by statistically approved increase of cytotoxic activity against K562 or A431: 10 donors
[10]; 18 cancer patients
  Positive responses proportion, A431: 8/18 = 44%
[10]; [15]
  Cytotoxicity index, %: 93.5 ± 0.9%
[10]; [16]
  Cytotoxicity index, %: 26.0 ± 8.9 %
[11]; 5 ng/ml
  Efficacy compared to alloferon at 0.05-0.5 ng/ml: less effective
